Laboratory results published in patent US10829458B2 (Araxes Pharma LLC, priority 2015, dated 2020).

Biological target: T1, KRAS G12C 1-169, his-tagged protein, GDP-loaded (Homo sapiens, UniProt P01116, G12C)
T1 construct: KRAS G12C 1-169, his-tagged protein, GDP-loaded
Experiment: Biochemical assay: covalent modification of KRAS G12C measured by mass spectrometry (RapidFire/TOF or Q-Exactive)
Conditions: covalent binding to KRAS G12C
Procedure, shortened: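 GDP-loaded his-tagged KRAS G12C 1-169 at 2 μM in 20 mM Hepes, 150 mM NaCl, 1 mM MgCl2 incubated at room temperature with compound (10, 30 or 100 μM final, 2% DMSO) for 30 min, 2 h or 24 h, then quenched with formic acid. Intact-protein LC-MS (RapidFire/TOF or Q-Exactive) with deconvolution quantified modified versus unmodified protein.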

For C=CC(=O)N1CCN(c2nc(OCc3cccc(C#N)n3)nc3c(F)c(-c4c(O)cccc4F)c(Cl)cc23)CC1 [Example I-122, 6-((4-(4-acryloyl-piperazin-1-yl)-6-chloro-8-fluoro-7-(2-fluoro-6-hydroxyphenyl)quinazolin-2-yloxy)methyl) picolinonitrile], the Binding % (compounds of structure (I)) was “+++ (+++ indicates binding activity greater than 90%)”.

For C=CC(=O)N1CCN(c2nc(OCCN3CCC(F)CC3)nc3c(F)c(-c4c(O)cccc4F)c(Cl)cc23)CC1 [Example I-76, 1-(4-(6-chloro-8-fluoro-7-(2-fluoro-6-hydroxyphenyl)-2-(2-(4-fluoro-piperidin-1-yl)ethoxy)quinazolin-4-yl)piperazin-1-yl)prop-2-en-1-one], the Binding % (compounds of structure (I)) was “+++ (+++ indicates binding activity greater than 90%)”.

For C=CC(=O)N1CCN(c2nc(NC3CCN(C4CCC4)CC3)nc3c(F)c(-c4c(C)ccc5[nH]ncc45)c(Cl)cc23)CC1 [Example I-132, 1-(4-(6-chloro-2-(1-cyclobutyl-piperidin-4-ylamino)-8-fluoro-7-(5-methyl-1H-indazol-4-yl)quinazolin-4-yl)piperazin-1-yl) prop-2-en-1-one], the Binding % (compounds of structure (I)) was “+++ (+++ indicates binding activity greater than 90%)”.

CN(C)C/C=C/C(=O)N1CCN(c2nc(OCCN3CCOCC3)nc3c(F)c(-c4c(O)cccc4F)c(Cl)cc23)CC1 [Example I-74, (E)-1-(4-(6-chloro-8-fluoro-7-(2-fluoro-6-hydroxyphenyl)-2-(2-morpholino-ethoxy)quinazolin-4-yl)piperazin-1-yl)-4-(dimethyl-amino)but-2-en-1-one] was tested, and the Binding % (compounds of structure (I)) was “+++ (+++ indicates binding activity greater than 90%)”.

For C=CC(=O)N1CCN(c2nc(N3CC(N4CCN(C5CC5)CC4)C3)nc3c(F)c(-c4c(O)cccc4F)c(Cl)cc23)CC1 [Example I-166, 1-(4-(6-chloro-2-(3-(4-cyclopropyl-piperazin-1-yl)azetidin-1-yl)-8-fluoro-7-(2-fluoro-6-hydroxyphenyl)quinazolin-4-yl)piperazin-1-yl) prop-2-en-1-one], the Binding % (compounds of structure (I)) was “++ (++ indicates binding activity from 50 to 90%)”.

In the case of C=CC(=O)N1C[C@@H](C)N(c2ncnc3c(F)c(-c4c(O)cccc4F)c(Cl)cc23)[C@@H](C)C1 (atropisomer, axis not shown) [III-4, 1-((3S,5R)-4-((R)-6-chloro-8-fluoro-7-(2-fluoro-6-hydroxy-phenyl)quinazolin-4-yl)-3,5-dimethyl-piperazin-1-yl)prop-2-en-1-one], the Binding % (compounds of structure (III)) is reported as “+ (+ indicates binding activity up to 50%)”.

For C=CC(=O)N1CCN(c2nc(OCCn3ccnc3C)nc3c(F)c(-c4c(C)ccc5[nH]ncc45)c(Cl)cc23)CC1 [Example I-6, 1-(4-(6-chloro-8-fluoro-2-(2-(2-methyl-1H-imidazol-1-yl)ethoxy)-7-(5-methyl-1H-indazol-4-yl)quinazolin-4-yl)piperazin-1-yl)prop-2-en-1-one], the Binding % (compounds of structure (I)) was “+++ (+++ indicates binding activity greater than 90%)”.

In the case of C=CC(=O)N1CCN(c2nc(OCCN3CC(F)(F)C3)nc3c(F)c(-c4c(O)cccc4F)c(Cl)cc23)CC1 (atropisomer, axis not shown) [Example I-126, (R)-1-(4-(6-chloro-2-(2-(3,3-difluoro-azetidin-1-yl)ethoxy)-8-fluoro-7-(2-fluoro-6-hydroxyphenyl)quinazolin-4-yl)piperazin-1-yl) prop-2-en-1-one], the Binding % (compounds of structure (I)) is reported as “+ (+ indicates binding activity up to 50%)”.

O=C(/C=C/CN1CCC1)N1CCN(c2ncnc3c(F)c(-c4c(O)cccc4F)c(Cl)cc23)CC1 [II-2, (E)-4-(azetidin-1-yl)-1-(4-(6-chloro-8-fluoro-7-(2-fluoro-6-hydroxyphenyl)quinazolin-4-yl)piperazin-1-yl)but-2-en-1-one] was tested, and the Binding % (compounds of structure (II)) was “+++ (+++ indicates binding activity of 75% or greater)”.

With C=CC(=O)N1CCN(c2nc(OC3COC3)nc3c(F)c(-c4c(O)cccc4F)c(Cl)cc23)CC1 [Example I-19, 1-(4-(6-chloro-8-fluoro-7-(2-fluoro-6-hydroxyphenyl)-2-(oxetan-3-yloxy)quinazolin-4-yl)piperazin-1-yl)prop-2-en-1-one] the Binding % (compounds of structure (I)) was “++ (++ indicates binding activity from 50 to 90%)”.

For C=CC(=O)N1CCN(c2nc(N3CC(CN(C)C)C3)nc3c(F)c(-c4c(C)ccc5[nH]ncc45)c(Cl)cc23)CC1 [Example I-159, 1-(4-(6-chloro-2-(3-((dimethyl-amino)methyl)azetidin-1-yl)-8-fluoro-7-(5-methyl-1H-indazol-4-yl)quinazolin-4-yl)piperazin-1-yl) prop-2-en-1-one], the Binding % (compounds of structure (I)) was “+++ (+++ indicates binding activity greater than 90%)”.

In the case of C=CC(=O)N1CCN(c2nc(OCCN(C)C)nc3c(F)c(-c4cc(O)cc5ccccc45)c(Cl)cc23)CC1 (atropisomer, axis not shown) [Example I-96, (R)-1-(4-(6-chloro-2-(2-(dimethylamino)ethoxy)-8-fluoro-7-(3-hydroxy-naphthalen-1-yl)quinazolin-4-yl)piperazin-1-yl)prop-2-en-1-one], the Binding % (compounds of structure (I)) is reported as “+ (+ indicates binding activity up to 50%)”.

C=CC(=O)N1CCN(c2nc(NCCN3CC[C@@H](O)C3)nc3c(F)c(-c4c(O)cccc4F)c(Cl)cc23)CC1 [Example I-56, 1-(4-(6-chloro-8-fluoro-7-(2-fluoro-6-hydroxyphenyl)-2-(2-((R)-3-hydroxy-pyrrolidin-1-yl)ethylamino)quinazolin-4-yl)piperazin-1-yl) prop-2-en-1-one] was tested, and the Binding % (compounds of structure (I)) was “+++ (+++ indicates binding activity greater than 90%)”.

C=CC(=O)N1CCN(c2ncnc3c(F)c(-c4c(O)cccc4F)c(Cl)cc23)C(=O)C1 [III-38, 4-acryloyl-1-(6-chloro-8-fluoro-7-(2-fluoro-6-hydroxy-phenyl)quinazolin-4-yl) piperazin-2-one] was tested, and the Binding % (compounds of structure (III)) was “++ (++ indicates activity from 50% to 90%)”.

In the case of C=CC(=O)N1[C@H](C)CN(c2ncnc3c(F)c(-c4c(C)ccc5[nH]ncc45)c(Cl)cc23)C[C@@H]1C [III-26, 1-((2S,6R)-4-(6-chloro-8-fluoro-7-(5-methyl-1H-indazol-4-yl)quinazolin-4-yl)-2,6-dimethyl-piperazin-1-yl)prop-2-en-1-one], the Binding % (compounds of structure (III)) is reported as “++ (++ indicates activity from 50% to 90%)”.

C=CC(=O)N1CCN(c2nc(OCCN3CCOCC3=O)nc3c(F)c(-c4cc(O)cc5ccccc45)c(Cl)cc23)CC1 [Example I-57, 4-(2-(4-(4-acryloyl-piperazin-1-yl)-6-chloro-8-fluoro-7-(3-hydroxy-naphthalen-1-yl)quinazolin-2-yloxy)ethyl) morpholin-3-one] was tested, and the Binding % (compounds of structure (I)) was “+++ (+++ indicates binding activity greater than 90%)”.

With C=CC(=O)N1CCCN(c2ncnc3c(F)c(-c4c(O)cccc4F)c(Cl)cc23)CC1 [II-7, 1-(4-(6-chloro-8-fluoro-7-(2-fluoro-6-hydroxyphenyl)quinazolin-4-yl)-1,4-diazepan-1-yl)prop-2-en-1-one] the Binding % (compounds of structure (II)) was “+ (+ indicates binding activity up to 50%)”.

C=CC(=O)N1CCN(c2nc(OCCN3CC(F)(F)C3)nc3c(F)c(-c4c(C)ccc5[nH]ncc45)c(Cl)cc23)CC1 [Example I-145, 1-(4-(6-chloro-2-(2-(3,3-difluoro-azetidin-1-yl)ethoxy)-8-fluoro-7-(5-methyl-1H-indazol-4-yl)quinazolin-4-yl)piperazin-1-yl) prop-2-en-1-one] was tested, and the Binding % (compounds of structure (I)) was “+++ (+++ indicates binding activity greater than 90%)”.

For C=CC(=O)N1CCN(c2ncnc3c(F)c(-c4c(C)ccc5cn[nH]c45)c(Cl)cc23)[C@@H](C)C1 [III-3, 1-((3S)-4-(6-chloro-8-fluoro-7-(6-methyl-1H-indazol-7-yl)quinazolin-4-yl)-3-methyl-piperazin-1-yl)prop-2-en-1-one], the Binding % (compounds of structure (III)) was “++ (++ indicates activity from 50% to 90%)”.

C=CC(=O)N1CCN(c2ncnc3c(F)c(-c4c(F)cccc4OCc4cncn4C)c(Cl)cc23)CC1 [II-6, 1-(4-(6-chloro-8-fluoro-7-(2-fluoro-6-((1-methyl-1H-imidazol-5-yl)methoxy)phenyl)quinazolin-4-yl)piperazin-1-yl)prop-2-en-1-one] was tested, and the Binding % (compounds of structure (II)) was “++ (++ indicates binding activity greater than 50% and less than 75%)”.

In the case of Cc1ccc2[nH]ncc2c1-c1c(Cl)cc2c(N3CCN(C(=O)/C=C/CN(C)C)CC3)nc(OCCN3CCCC3=O)nc2c1F [Example I-2, (E)-1-(2-(6-chloro-4-(4-(4-(dimethylamino)but-2-enoyl)piperazin-1-yl)-8-fluoro-7-(5-methyl-1H-indazol-4-yl)quinazolin-2-yloxy)ethyl) pyrrolidin-2-one], the Binding % (compounds of structure (I)) is reported as “+ (+ indicates binding activity up to 50%)”.

With C=CC(=O)N1CCN(c2nc(OCCN3CCOCC3)nc3c(F)c(-c4c(O)cccc4F)c(Cl)cc23)CC1 (atropisomer, axis not shown) [Example I-29, (S)-1-(4-(6-chloro-8-fluoro-7-(2-fluoro-6-hydroxyphenyl)-2-(2-morpholino-ethoxy)quinazolin-4-yl)piperazin-1-yl)prop-2-en-1-one] the Binding % (compounds of structure (I)) was “+++ (+++ indicates binding activity greater than 90%)”.

For C=CC(=O)N1CCN(c2nc(OCCN3CCN(C4CC4)CC3)nc3c(F)c(-c4c(O)cccc4F)c(Cl)cc23)CC1 [Example I-168, 1-(4-(6-chloro-2-(2-(4-cyclopropyl-piperazin-1-yl)ethoxy)-8-fluoro-7-(2-fluoro-6-hydroxyphenyl)quinazolin-4-yl)piperazin-1-yl) prop-2-en-1-one], the Binding % (compounds of structure (I)) was “+++ (+++ indicates binding activity greater than 90%)”.

C=CC(=O)N1CCN(c2c(C#N)c(N3CC(N(C)C)C3)nc3c(F)c(-c4c(O)cccc4F)c(Cl)cc23)CC1 [Example I-197, 4-(4-acryloyl-piperazin-1-yl)-6-chloro-2-(3-(dimethyl-amino)azetidin-1-yl)-8-fluoro-7-(2-fluoro-6-hydroxyphenyl) quinoline-3-carbonitrile] was tested, and the Binding % (compounds of structure (I)) was “++ (++ indicates binding activity from 50 to 90%)”.
